What was measured:
[1] = In vivo pharmacokinetic study, oral dosing; design: species or system male C57BL/6J mice
[2] = Mouse liver microsome stability; type: in vitro ADME; conditions: 0.5 mg protein/mL, 37 °C
[3] = male, C57BL/6J, mouse plasma, PO 10 mg/kg, second number = SD
[4] = mouse, liver microsomes, read-out: MLM t1/2

half-life ([1]; male, C57BL/6J, plasma, mouse, oral dosing 10 mg/kg) [min] | Cmax at 24 h ([1]; male, C57BL/6J, mouse plasma, PO 10 mg/kg) [nM] | Tmax at 24 h [1, 3] [min] | half-life at 24 h [1, 3] [min] | MRT inf at 24 h ([1]; male, C57BL/6J, mouse plasma, PO 10 mg/kg, second number = SD, read-out: MRT0-inf) [min] | oral bioavailability (in words) ([1]; mouse, oral dosing 10 mg/kg) | MLM t1/2 ([2]; mouse liver microsomes, 1 μM) [min] | half-life at 1 μM [2, 4] [min] | half-life at 1 h, 1 µM [2, 4] [min] | Compound
53 | 310 | 25 | 53.3 | 81 | orally bioavailable | 104.7 | 105 |  | [O-][n+]1cc(O)cc(CCCc2ccc(Cl)c(C(F)(F)F)c2)c1 [Compound 69, 3-(3-(4-Chloro-3-(trifluoromethyl)phenyl)propyl)-5-hydroxypyridine 1-oxide]
 |  |  |  |  |  |  |  | 7.2 | [O-][n+]1cccc(CCOc2ccc(Cl)c(C3CC3)c2)c1 [Compound 41, 3-(2-(4-Chloro-3-cyclopropylphenoxy)ethyl)pyridine 1-oxide]
 |  |  |  |  |  |  |  | 11.7 | O=c1cccc(CCOc2ccc(Cl)cc2)[nH]1 [Compound 60, 6-(2-(4-Chlorophenoxy)ethyl)pyridin-2-ol]

From article PMC10788923 (Journal of Medicinal Chemistry, 2023)
